The values below come from patent US6066484A, “Purine nucleosidase” (Suntory Limited, priority 1996, dated 2000).

“Also recorded” adds a separate entry of the source.

What all share (assay type): biochemical, Ochrobactrum anthropi
Assay [1] concerns purine nucleosidase. The assay can be described thus: Substrate specificity of purine nucleosidase by thin-layer chromatography. To be noted: thin-layer chromatography. Also on record: key to Relative activity: -: not reacted; +: <10%; ++: <31%; +++: <50%; ++++: >50%. As to the method: (§1) The reaction solution (200 μl) contained 0.5 mM of adenosine or inosine or 0.25 mM of guanosine as the substrate, 50 mM of acetate buffer at pH 4.5 and a sufficient amount of enzyme. The reaction was initiated by addition of the enzyme, and the reaction was conducted at 50° C. for 5 minutes. The reaction was terminated by addition of 20 μl of 15% perchloric acid, and after centrifugation (35,000 rpm, 10 min) the supernatant was analyzed qualitatively by thin-layer chromatography (TLC) and quantitatively by high-performance liquid chromatography. The analysis methods were as follows.
(1) Thin-layer chromatography
Plate: Kieselgel 60F254 (Merk)
Developing solution: n-butanol/isopropanol/H2 O/NH4 OH=1:7:2:0.2 (v/v/v/v) (for adenosine and guanosine substrates), n-butanol/acetic acid/H2 O=5:1:1 (v/v/v) (for inosine substrate)
The substrate specificity of the purine nucleosidase was determined by thin-layer chromatography (TLC).
The specific activity was measured under conditions of 50° C., pH 4.5. The Km and Vmax were measured under conditions of 30° C., pH 4.5. The relative activity was expressed according to the following measurement method.

The test system of assay [2] is purine nucleosidase. The assay can be described thus: Effect of metal ions on purine nucleosidase. To be noted: for Inhibition or activation of purine nucleosidase by metal ions (in words): 1 mM metal ion; for Relative activity: 1 mM metal, pH 4.5, 30° C., 40 minutes, not added = 100.0. As to the method:
as §1
Various metal ions were added to the activity measuring solution in an amount of 1 mM to measure the activity. The reaction was conducted at pH 4.5, 30° C. for 40 minutes.

Assay [3] relates to purine nucleosidase. The assay can be described thus: Effect of inhibitors on purine nucleosidase. The settings on record: 1 mM inhibitor; for Relative activity: pH 4.5, 30° C., 20 minutes, not added = 100.0. The protocol: as §1
The activity was measured after adding 1 mM of different inhibitors to the activity measurement solution. The reaction was conducted at pH 4.5, 30° C. for 20 minutes.

On to `NC(=O)c1ccc[n+]([C@@H]2O[C@H](COP(=O)([O-])OP(=O)(O)OC[C@H]3O[C@@H](n4cnc5c(N)ncnc54)[C@H](OP(=O)(O)O)[C@@H]3O)[C@@H](O)[C@H]2O)c1` [β-NADP], for which, in the assay on purine nucleosidase [1], the Relative activity entry is on record as “-”.

Consider `O=S(=O)([O-])[O-].[Cu+2]` [CuSO4], for which the “Inhibition or activation of purine nucleosidase by metal ions (in words)” value (“Inhibition or activation” for short) in the assay with purine nucleosidase [2] (listed as Cu^2+) was “Inhibition occurred; also recorded: Inhibited”. Further, the Relative activity with purine nucleosidase [2] stood at 42.7%. Regarding `O=S(=O)([O-])[O-].[Be+2]` [BeSO4], the Relative activity in the assay on purine nucleosidase [2] is 88.9%. Take 2'-chloroadenosine: the Relative activity result with purine nucleosidase [1] is “++++ (>50%)”. As to `[Cl-].[Cl-].[Mg+2]` [MgCl2], the Relative activity in the assay with purine nucleosidase [2] turned out to be 91.6%. `NC(=O)c1ccc[n+]([C@@H]2O[C@H](COP(=O)([O-])OP(=O)(O)OC[C@H]3O[C@@H](n4cnc5c(N)ncnc54)[C@H](O)[C@@H]3O)[C@@H](O)[C@H]2O)c1` [β-NAD, β-nicotinamide adenine dinucleotide]: the Relative activity entry with purine nucleosidase [1] was “+ (<10%)”. The same measure, in the same setting: in the case of `Nc1nc2c(ncn2[C@@H]2O[C@H](COP(=O)(O)O)[C@@H](O)[C@H]2O)c(=O)[nH]1` [5'-GMP, 5'-guanosine monophosphate] it was “+ (<10%)”.

Consider `Nc1ncnc2c1ncn2[C@@H]1O[C@H](COP(=O)(O)O)[C@@H](O)[C@H]1O` [5'-AMP, 5'-adenosine monophosphate], for which the Relative activity result in the assay on purine nucleosidase [1] is recorded as “++ (<31%)”. Regarding `[Cl][Ni][Cl]` [NiCl2], the Relative activity in the assay on purine nucleosidase [2] was determined as 91.3%. In the case of `O=C(O)CI` [iodoacetic acid], the Relative activity with purine nucleosidase [3] was determined as 99.4%. With `[Cl-].[Cs+]` [CsCl], in the assay with purine nucleosidase [2], the Relative activity was 106.9%. Still for that read-out and setting: in the case of `[Cl][Cd][Cl]` [CdCl2] it was 124.9%. As to `O=c1[nH]cnc2c1ncn2[C@@H]1O[C@H](COP(=O)(O)OP(=O)(O)O)[C@@H](O)[C@H]1O` [5'-IDP], in the assay on purine nucleosidase [1], the Relative activity entry was “-”. In the case of `Oc1cccc2cccnc12` [8-hydroxyquinoline], in the assay with purine nucleosidase [3], the Relative activity is 8.5%. Take `O=c1ccn([C@@H]2O[C@H](CO)[C@@H](O)[C@H]2O)c(=O)[nH]1` [uridine]: the Relative activity entry in the assay on purine nucleosidase [1] is listed as “-”.

`O=c1ccn([C@H]2C[C@H](O)[C@@H](CO)O2)c(=O)[nH]1` [2'-deoxyuridine]: in the assay on purine nucleosidase [1], the Relative activity entry is “-”. The same measure, in the same setting: in the case of `Cc1cn([C@H]2C[C@H](O)[C@@H](CO)O2)c(=O)[nH]c1=O` [thymidine] it was “-”. Consider `O=S(=O)([O-])[O-].[Fe+2]` [FeSO4], for which the Relative activity in the assay with purine nucleosidase [2] is on record as 92.6%.

For the molecule `[Cl][Sn][Cl]` [SnCl2], in the assay on purine nucleosidase [2], the Relative activity was found to be 113.2%. Regarding `O=C1CCC(=O)N1Br` [N-bromosuccimide], in the assay with purine nucleosidase [3], the Relative activity is 113.7%. `[Cl][Hg][Cl]` [HgCl2]: the “Inhibition or activation” value in the assay on purine nucleosidase [2] (listed as Hg^2+) was “Inhibition occurred; also recorded: Inhibited”. For the same molecule, the Relative activity in the assay with purine nucleosidase [2] was found to be 39.4%.

Take `O=C(O)c1cc(SSc2ccc([N+](=O)[O-])c(C(=O)O)c2)ccc1[N+](=O)[O-]` [DTNB, 5,5'-dithiobis(2-nitrobenzoic acid)]: in the assay on purine nucleosidase [3], the “Inhibition of purine nucleosidase (in words)” value was “Inhibition occurred; also recorded: inhibited” and the Relative activity was 37.4%. For the molecule `[Cl-].[Na+]` [NaCl], the Relative activity in the assay on purine nucleosidase [2] was 93.3%.

Take `[N-]=[N+]=[N-]` [sodium azide]: in the assay with purine nucleosidase [3], the “Inhibition of purine nucleosidase (in words)” value is reported as “Inhibition occurred; also recorded: inhibited” and the Relative activity was 72.9%. For `NC(=O)c1ccc[n+]([C@@H]2O[C@H](COP(=O)([O-])OP(=O)(O)OC[C@H]3O[C@@H](n4cnc5c(=O)[nH]cnc54)[C@H](O)[C@@H]3O)[C@@H](O)[C@H]2O)c1` [deamino NAD], in the assay with purine nucleosidase [1], the Relative activity result is recorded as “-”. As to `O=c1ccn([C@@H]2O[C@H](COP(=O)(O)O)[C@@H](O)[C@H]2O)c(=O)[nH]1` [5'-UMP], the Relative activity entry with purine nucleosidase [1] was “-”. The same measure, in the same setting: then `Nc1ccn([C@@H]2O[C@H](COP(=O)(O)O)[C@@H](O)[C@H]2O)c(=O)n1` [5'-CMP], with “-”.

As to `[Cl-].[Cl-].[Co+2]` [CoCl2], the Relative activity with purine nucleosidase [2] came to 82.9%. On to `Nc1ncnc2c1ncn2[C@@H]1O[C@H](CO)C[C@H]1O` [cordycepin], for which the Relative activity result in the assay on purine nucleosidase [1] is “++ (<31%)”. For `c1cnc2c(c1)ccc1cccnc12` [o-phenanthroline], the Relative activity with purine nucleosidase [3] is 78.3%. Consider `[Cl-].[Rb+]` [RbCl], for which the Relative activity with purine nucleosidase [2] turned out to be 106.5%. Take `O=[Se](O)O` [sodium selenite]: the “Inhibition of purine nucleosidase (in words)” value with purine nucleosidase [3] is “Inhibition occurred; also recorded: inhibited”.

For the molecule `[Ca+2].[Cl-].[Cl-]` [CaCl2], in the assay with purine nucleosidase [2], the Relative activity is given as 101.7%. Turning to `Nc1ncnc2c1ncn2[C@@H]1O[C@H](CO)[C@@H](O)[C@H]1OP(=O)(O)O` [2'-AMP, 2'-adenosine monophosphate], the Relative activity result in the assay with purine nucleosidase [1] is on record as “++ (<31%)”.

`O=S(=O)([O-])[O-].[Zn+2]` [ZnSO4]: the “Inhibition or activation” value in the assay on purine nucleosidase [2] (listed as Zn^2+) is on record as “Inhibition occurred; also recorded: Inhibited”. The Relative activity in the assay on purine nucleosidase [2] was determined as 74.9%. Turning to `NNc1ccccc1` [phenylhydrazine], the Relative activity with purine nucleosidase [3] was determined as 100.4%. For the molecule `[Cl][Al]([Cl])[Cl]` [AlCl3], the Relative activity with purine nucleosidase [2] was found to be 73.6%.

Consider `Nc1ccn([C@@H]2O[C@H](CO)[C@@H](O)[C@H]2O)c(=O)n1` [cytidine], for which, in the assay with purine nucleosidase [1], the Relative activity entry was “-”.

With `CCN1C(=O)C=CC1=O` [N-ethylmaleimide], the Relative activity in the assay on purine nucleosidase [3] is 107.9%. As for `O=C(O)CN(CCN(CC(=O)O)CC(=O)O)CC(=O)O` [EDTA-Na2], the Relative activity in the assay with purine nucleosidase [3] is given as 54.4%. As for `NNC(N)=O` [semicarbazide], the Relative activity in the assay with purine nucleosidase [3] is 103.4%. For the molecule `O=c1[nH]c(=O)c2ncn([C@@H]3O[C@H](COP(=O)(O)O)[C@@H](O)[C@H]3O)c2[nH]1` [5'-XMP], the Relative activity result with purine nucleosidase [1] is on record as “+ (<10%)”. On to `[Ba+2].[Cl-].[Cl-]` [BaCl2], for which the Relative activity with purine nucleosidase [2] is on record as 86.1%. With `Cl.NO` [NH2 OH·HCl], the Relative activity in the assay on purine nucleosidase [3] was found to be 106.6%. 5'-bromouridine: in the assay on purine nucleosidase [1], the Relative activity entry is given as “-”. Consider `[Cl][Fe]([Cl])[Cl]` [FeCl3], for which the Relative activity with purine nucleosidase [2] is listed as 100.0%. With `[F-].[Na+]` [sodium fluoride], in the assay with purine nucleosidase [3], the “Inhibition of purine nucleosidase (in words)” value is “Inhibition occurred; also recorded: inhibited” and the Relative activity was found to be 62.2%.

As for `O=c1[nH]cnc2c1ncn2[C@@H]1O[C@H](CO)[C@@H](O)[C@H]1OP(=O)(O)O` [2'-IMP], the Relative activity result in the assay with purine nucleosidase [1] is reported as “-”. For the molecule `[Cl-].[Li+]` [LiCl], the Relative activity with purine nucleosidase [2] is given as 103.0%.

As for `Nc1ccn([C@@H]2O[C@H](CO)[C@@H](O)[C@H]2OP(=O)(O)O)c(=O)n1` [2'-CMP], the Relative activity result in the assay with purine nucleosidase [1] is given as “+ (<10%)”. `O=[As]([O-])([O-])O.[Na+].[Na+]` [sodium arsenate]: the Relative activity in the assay on purine nucleosidase [3] stood at 69.4%. With `NC(=O)c1ccc[n+]([C@@H]2O[C@H](COP(=O)([O-])O)[C@@H](O)[C@H]2O)c1` [β-NMN], the Relative activity entry in the assay on purine nucleosidase [1] was “-”. Turning to `Nc1ncnc2c1ncn2[C@@H]1O[C@H](CO)[C@@H](OP(=O)(O)O)[C@H]1O` [3'-AMP, 3'-adenosine monophosphate], the Relative activity result in the assay with purine nucleosidase [1] was “++ (<31%)”. On to `[Cl-].[K+]` [KCl], for which the Relative activity in the assay with purine nucleosidase [2] worked out at 100.9%. For the molecule `O=C(O)c1cc[c]([Hg][Cl])cc1` [p-CMB], in the assay on purine nucleosidase [3], the Relative activity is 80.2%. Turning to `[Cl][Pb][Cl]` [PbCl2], the Relative activity in the assay on purine nucleosidase [2] is 111.0%. As to `O=S(=O)([O-])[O-].[Ag+].[Ag+]` [Ag2 SO4], in the assay on purine nucleosidase [2] (listed as Ag^+), the “Inhibition or activation” value is given as “Inhibition occurred; also recorded: Inhibited”. The Relative activity with purine nucleosidase [2] is listed as 31.6%. For `O=c1[nH]cc([C@@H]2O[C@H](CO)[C@@H](O)[C@H]2O)c(=O)[nH]1` [pseudouridine], the Relative activity result in the assay on purine nucleosidase [1] is recorded as “-”.

With `[Cl][Mn][Cl]` [MnCl2], the “Inhibition or activation” value with purine nucleosidase [2] (listed as Mn^2+) is “Inhibition occurred; also recorded: Inhibited”. For the same molecule, in the assay with purine nucleosidase [2], the Relative activity came out at 65.5%. Take `Nc1ncnc2c1ncn2[C@H]1C[C@H](O)[C@@H](CO)O1` [2'-deoxyadenosine]: in the assay with purine nucleosidase [1], the Relative activity entry is reported as “++ (<31%)”.
